ChEMBL document CHEMBL4334438, “Discovery of novel glycogen synthase kinase-3α inhibitors: Structure-based virtual screening, preliminary SAR and biological evaluation for treatment of acute myeloid leukemia” (Eur J Med Chem, 2019)

Assays:
[1] = organism: Homo sapiens; test: Inhibition of human MAPK2 assessed as residual activity at 1 uM relative to control
[2] = target: Mast/stem cell growth factor receptor Kit (Homo sapiens) (UniProt P10721); test: Inhibition of recombinant human c-Kit (544 to end residues) assessed as residual activity at 1 uM using poly(Glu, Tyr) 4:1 as substrate measured after 40 mins in presence of [gamma33P]ATP by scintillation counting method
[3] = target: Serine/threonine-protein kinase 38-like (Homo sapiens) (UniProt Q9Y2H1); test: Inhibition of recombinant human NDR2 (83 to end residues) assessed as residual activity at 1 uM using RSRSRSRSRSRSRSR as substrate measured after 40 mins in presence of [gamma33P]ATP by scintillation counting method relative to control
Sequence of Serine/threonine-protein kinase 38-like (Homo sapiens) (Q9Y2H1 2-464 limits assumed): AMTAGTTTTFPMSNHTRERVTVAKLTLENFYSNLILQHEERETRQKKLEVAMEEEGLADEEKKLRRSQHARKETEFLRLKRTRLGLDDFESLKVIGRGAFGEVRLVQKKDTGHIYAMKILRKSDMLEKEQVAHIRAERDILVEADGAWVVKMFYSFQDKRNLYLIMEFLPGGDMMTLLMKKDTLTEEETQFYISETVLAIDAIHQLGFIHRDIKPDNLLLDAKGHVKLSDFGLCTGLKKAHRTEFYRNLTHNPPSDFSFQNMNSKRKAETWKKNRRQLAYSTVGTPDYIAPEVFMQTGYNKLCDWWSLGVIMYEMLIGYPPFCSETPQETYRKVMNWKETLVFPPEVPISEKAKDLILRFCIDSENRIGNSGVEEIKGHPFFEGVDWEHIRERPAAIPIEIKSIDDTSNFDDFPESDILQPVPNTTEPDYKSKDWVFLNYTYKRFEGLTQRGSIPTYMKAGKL

[4] = target: Mitogen-activated protein kinase 12 (Homo sapiens) (UniProt P53778); test: Inhibition of recombinant human full length SAPK3 assessed as residual activity at 1 uM using myelin basic protein as substrate measured after 40 mins in presence of [gamma33P]ATP by scintillation counting method relative to control
[5] = target: Calcium/calmodulin-dependent protein kinase type 1B (Homo sapiens) (UniProt Q6P2M8); test: Inhibition of recombinant full length human CaMKIbeta assessed as residual activity at 1 uM using KKLRRTLSFAEP as substrate incubated for 40 mins in presence of [gamma-33ATP] by scintillation counting based radiometry assay relative to control
[6] = test system: Serine/threonine-protein kinase Nek4 (Homo sapiens), P51957 [P225A]; test: Inhibition of recombinant full-length human NEK4 P225A mutant assessed as residual activity at 1 uM using myelin basic protein as substrate measured after 40 mins in presence of [gamma33P]ATP by scintillation counting method relative to control
Sequence of Serine/threonine-protein kinase Nek4 (Homo sapiens), P51957 [P225A] (P51957 whole entry P225A): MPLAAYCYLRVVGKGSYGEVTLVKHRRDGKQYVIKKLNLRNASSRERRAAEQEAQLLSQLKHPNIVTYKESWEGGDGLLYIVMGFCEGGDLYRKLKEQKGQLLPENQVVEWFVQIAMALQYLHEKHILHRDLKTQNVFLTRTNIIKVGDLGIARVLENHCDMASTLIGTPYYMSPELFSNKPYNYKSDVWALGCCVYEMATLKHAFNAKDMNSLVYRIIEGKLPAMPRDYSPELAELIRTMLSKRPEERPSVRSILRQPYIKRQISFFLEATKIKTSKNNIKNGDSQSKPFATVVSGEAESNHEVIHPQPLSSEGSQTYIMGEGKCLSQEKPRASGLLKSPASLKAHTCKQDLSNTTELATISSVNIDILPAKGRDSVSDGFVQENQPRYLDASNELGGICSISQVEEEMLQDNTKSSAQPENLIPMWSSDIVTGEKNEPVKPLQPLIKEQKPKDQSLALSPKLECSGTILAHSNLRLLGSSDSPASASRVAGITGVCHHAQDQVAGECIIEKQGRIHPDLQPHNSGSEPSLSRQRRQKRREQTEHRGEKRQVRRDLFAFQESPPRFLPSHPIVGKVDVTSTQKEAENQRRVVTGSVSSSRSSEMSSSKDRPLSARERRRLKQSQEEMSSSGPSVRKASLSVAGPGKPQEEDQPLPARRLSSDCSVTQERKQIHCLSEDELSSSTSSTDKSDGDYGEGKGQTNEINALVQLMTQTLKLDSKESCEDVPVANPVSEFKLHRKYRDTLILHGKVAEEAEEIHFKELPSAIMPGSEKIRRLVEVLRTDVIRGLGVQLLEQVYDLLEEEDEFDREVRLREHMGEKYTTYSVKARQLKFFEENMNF

[7] = target: NUAK family SNF1-like kinase 2 (Homo sapiens) (UniProt Q9H093); test: Inhibition of recombinant human full length NUAK2 assessed as residual activity at 1 uM using KKKVSRSGLYRSPSMPENLNRPR as substrate measured after 40 mins in presence of [gamma33P]ATP by scintillation counting method relative to control
[8] = target: Myosin-IIIb (Homo sapiens) (UniProt Q8WXR4); test: Inhibition of recombinant human MYO3B (1 to 306 residues) assessed as residual activity at 1 uM using RLGRDKYKTLRQIRQ as substrate measured after 40 mins in presence of [gamma33P]ATP by scintillation counting method relative to control
Sequence of Myosin-IIIb (Homo sapiens) (Q8WXR4 whole entry, the tested form may be a part): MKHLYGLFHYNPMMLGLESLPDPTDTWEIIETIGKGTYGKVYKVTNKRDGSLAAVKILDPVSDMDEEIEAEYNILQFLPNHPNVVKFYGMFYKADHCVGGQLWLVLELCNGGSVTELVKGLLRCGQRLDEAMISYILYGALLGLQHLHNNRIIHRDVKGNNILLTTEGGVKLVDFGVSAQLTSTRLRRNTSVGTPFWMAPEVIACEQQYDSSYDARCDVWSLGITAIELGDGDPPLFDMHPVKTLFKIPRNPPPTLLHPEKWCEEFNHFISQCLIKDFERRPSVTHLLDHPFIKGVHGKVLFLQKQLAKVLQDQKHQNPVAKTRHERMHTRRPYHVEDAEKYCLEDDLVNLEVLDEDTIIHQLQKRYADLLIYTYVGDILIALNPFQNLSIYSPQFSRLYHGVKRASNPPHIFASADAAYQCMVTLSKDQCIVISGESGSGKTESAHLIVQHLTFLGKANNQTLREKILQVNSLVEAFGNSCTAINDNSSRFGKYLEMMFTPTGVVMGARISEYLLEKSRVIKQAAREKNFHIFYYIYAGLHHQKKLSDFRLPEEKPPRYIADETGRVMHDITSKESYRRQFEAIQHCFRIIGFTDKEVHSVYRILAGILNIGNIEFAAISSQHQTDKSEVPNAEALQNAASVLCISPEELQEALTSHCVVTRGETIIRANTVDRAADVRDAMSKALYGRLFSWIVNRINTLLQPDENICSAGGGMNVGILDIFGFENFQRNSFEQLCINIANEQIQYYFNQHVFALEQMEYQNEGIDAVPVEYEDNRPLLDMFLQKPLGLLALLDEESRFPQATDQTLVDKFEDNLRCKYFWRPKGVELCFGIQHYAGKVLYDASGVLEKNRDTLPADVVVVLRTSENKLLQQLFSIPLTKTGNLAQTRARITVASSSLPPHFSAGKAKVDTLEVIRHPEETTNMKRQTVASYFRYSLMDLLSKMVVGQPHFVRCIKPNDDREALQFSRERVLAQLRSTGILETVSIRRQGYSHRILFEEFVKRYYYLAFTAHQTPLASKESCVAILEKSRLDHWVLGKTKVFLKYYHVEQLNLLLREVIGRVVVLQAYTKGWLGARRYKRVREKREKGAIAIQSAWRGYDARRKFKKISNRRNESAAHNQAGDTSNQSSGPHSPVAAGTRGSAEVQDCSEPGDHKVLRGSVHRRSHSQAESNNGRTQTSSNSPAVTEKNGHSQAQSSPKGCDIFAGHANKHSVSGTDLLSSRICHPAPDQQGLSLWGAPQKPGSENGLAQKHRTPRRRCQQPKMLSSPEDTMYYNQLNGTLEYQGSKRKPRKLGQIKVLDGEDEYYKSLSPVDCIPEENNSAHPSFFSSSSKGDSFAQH

[9] = target: STE20-like serine/threonine-protein kinase (Homo sapiens) (UniProt Q9H2G2); test: Inhibition of human SLK (1 to 373 residues) assessed as residual activity at 1 uM using RLGRDKYKTLRQIRQ as substrate measured after 40 mins in presence of [gamma33P]ATP by scintillation counting method relative to control
[10] = test system: SNF-related serine/threonine-protein kinase (Homo sapiens), Q9NRH2 [UNDEFINED MUTATION]; test: Inhibition of human SNRK E97G/P116A mutant (65 to 409 residues) assessed as residual activity at 1 uM using KKLRRTLSFAEPG as substrate measured after 40 mins in presence of [gamma33P]ATP by scintillation counting method relative to control
[11] = target: Cyclin-dependent kinase 14/Cyclin-Y (Homo sapiens) (UniProt O94921+Q8ND76); test: Inhibition of recombinant full length human CDK14/cyclinY assessed as residual activity at 1 uM in presence of [gamma-33ATP] by scintillation counting based radiometry assay relative to control; type: protein-complex assay
[12] = target: Focal adhesion kinase 1 (Homo sapiens) (UniProt Q05397); test: Inhibition of recombinant human FAK (411 to 686 residues) assessed as residual activity at 1 uM using EEEEYEEEEEEYYIIEEEEEEYEEEEEEYYEEEEEEKKKK as substrate at 40 mins in presence of [gamma-33ATP] by scintillation counting based radiometry assay relative to control
Sequence of Focal adhesion kinase 1 (Homo sapiens) (Q05397 2-1052 limits assumed): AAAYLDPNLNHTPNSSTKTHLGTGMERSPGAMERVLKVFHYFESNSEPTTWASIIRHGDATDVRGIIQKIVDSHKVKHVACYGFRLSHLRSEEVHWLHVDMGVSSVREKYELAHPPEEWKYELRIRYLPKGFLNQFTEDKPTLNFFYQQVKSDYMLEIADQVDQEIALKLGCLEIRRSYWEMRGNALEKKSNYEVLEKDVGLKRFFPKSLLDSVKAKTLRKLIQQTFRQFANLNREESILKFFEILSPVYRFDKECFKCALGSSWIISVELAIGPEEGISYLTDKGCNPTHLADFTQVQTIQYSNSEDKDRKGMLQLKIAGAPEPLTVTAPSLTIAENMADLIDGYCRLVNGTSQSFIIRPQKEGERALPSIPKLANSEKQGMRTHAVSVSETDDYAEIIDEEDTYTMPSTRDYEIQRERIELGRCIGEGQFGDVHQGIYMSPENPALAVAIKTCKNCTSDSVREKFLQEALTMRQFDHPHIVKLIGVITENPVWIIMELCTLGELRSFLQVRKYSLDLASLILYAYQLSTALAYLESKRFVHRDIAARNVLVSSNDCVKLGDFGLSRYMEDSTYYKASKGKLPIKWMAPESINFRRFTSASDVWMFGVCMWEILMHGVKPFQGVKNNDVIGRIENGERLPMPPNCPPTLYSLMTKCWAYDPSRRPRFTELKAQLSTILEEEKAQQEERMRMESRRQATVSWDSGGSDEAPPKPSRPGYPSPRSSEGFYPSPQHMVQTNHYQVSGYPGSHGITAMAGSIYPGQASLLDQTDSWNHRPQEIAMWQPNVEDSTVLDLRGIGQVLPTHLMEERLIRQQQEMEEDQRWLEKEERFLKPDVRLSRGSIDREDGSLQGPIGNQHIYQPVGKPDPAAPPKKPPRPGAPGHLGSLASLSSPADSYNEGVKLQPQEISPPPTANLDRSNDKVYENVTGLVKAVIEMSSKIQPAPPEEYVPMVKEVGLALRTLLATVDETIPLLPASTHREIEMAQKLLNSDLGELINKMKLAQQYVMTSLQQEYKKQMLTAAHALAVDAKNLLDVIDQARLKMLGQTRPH

[13] = target: Serine/threonine-protein kinase PLK3 (Homo sapiens) (UniProt Q9H4B4); test: Inhibition of recombinant human Plk3 (19 to 301 residues) assessed as residual activity at 1 uM using casein as substrate measured after 40 mins in presence of [gamma33P]ATP by scintillation counting method relative to control
[14] = test system: Mast/stem cell growth factor receptor Kit (Homo sapiens), P10721 [V560G]; test: Inhibition of recombinant human C-Kit V560G mutant (544 to end residues) assessed as residual activity at 1 uM poly(Glu, Tyr) 4:1 as substrate incubated 40 mins in presence of [gamma-33ATP] by scintillation counting based radiometry assay relative to control
[15] = target: Casein kinase 2 (Homo sapiens) (UniProt P67870+P68400+P19784+Q8NEV1); test: Inhibition of recombinant human CK2 assessed as residual activity at 1 uM in presence of [gamma-33ATP] by scintillation counting based radiometry assay relative to control; type: protein assay
[16] = target: Ephrin type-A receptor 8 (Homo sapiens) (UniProt P29322); test: Inhibition of recombinant human EphA8 (615 to 911 residues) assessed as residual activity at 1 uM using KTFCGTPEYLAPEVRREPRILSEEEQEMFRDFDYIADWC as substrate at 40 mins in presence of [gamma-33ATP] by scintillation counting based radiometry assay relative to control
Sequence of Ephrin type-A receptor 8 (Homo sapiens) (P29322 whole entry, the tested form may be a part): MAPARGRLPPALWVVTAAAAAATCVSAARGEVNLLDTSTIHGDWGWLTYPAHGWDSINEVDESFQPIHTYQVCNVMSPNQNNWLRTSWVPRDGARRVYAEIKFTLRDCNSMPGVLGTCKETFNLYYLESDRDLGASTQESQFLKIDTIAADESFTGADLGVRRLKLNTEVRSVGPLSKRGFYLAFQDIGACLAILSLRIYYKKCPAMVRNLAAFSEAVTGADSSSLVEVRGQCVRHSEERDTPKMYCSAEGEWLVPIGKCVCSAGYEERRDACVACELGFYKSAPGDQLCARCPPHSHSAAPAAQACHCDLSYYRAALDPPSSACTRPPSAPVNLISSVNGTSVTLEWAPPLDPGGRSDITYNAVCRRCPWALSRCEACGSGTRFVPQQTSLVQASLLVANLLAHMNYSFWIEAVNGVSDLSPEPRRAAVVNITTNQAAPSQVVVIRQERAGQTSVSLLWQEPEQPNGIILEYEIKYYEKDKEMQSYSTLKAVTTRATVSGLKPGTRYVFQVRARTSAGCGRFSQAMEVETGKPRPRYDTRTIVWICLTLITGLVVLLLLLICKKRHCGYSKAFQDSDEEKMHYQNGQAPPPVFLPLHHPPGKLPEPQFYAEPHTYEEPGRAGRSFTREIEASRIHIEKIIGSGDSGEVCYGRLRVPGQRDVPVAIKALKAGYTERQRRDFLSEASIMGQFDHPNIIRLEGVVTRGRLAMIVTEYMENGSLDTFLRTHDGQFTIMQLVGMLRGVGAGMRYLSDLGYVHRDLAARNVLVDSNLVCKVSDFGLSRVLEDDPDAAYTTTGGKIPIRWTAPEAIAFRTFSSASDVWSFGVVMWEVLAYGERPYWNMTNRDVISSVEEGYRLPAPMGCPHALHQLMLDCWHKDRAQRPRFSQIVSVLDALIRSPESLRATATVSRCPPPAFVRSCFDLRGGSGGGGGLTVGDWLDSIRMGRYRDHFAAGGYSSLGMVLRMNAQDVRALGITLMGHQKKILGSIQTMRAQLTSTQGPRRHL

[17] = target: Calcium/calmodulin-dependent protein kinase type 1 (Homo sapiens) (UniProt Q14012); test: Inhibition of recombinant human CaMKIalpha (2 to end residues) assessed as residual activity at 1 uM […] incubated for 40 mins in presence of [gamma-33ATP] by scintillation counting based radiometry assay relative to control
[18] = target: Aurora kinase B (Homo sapiens) (UniProt Q96GD4); test: Inhibition of recombinant full length human Aurora B assessed as residual activity at 1 uM using AKRRRLSSLRA as substrate incubated for 40 mins in presence of [gamma-33ATP] by scintillation counting based radiometry assay relative to control
Sequence of Aurora kinase B (Homo sapiens) (Q96GD4 whole entry): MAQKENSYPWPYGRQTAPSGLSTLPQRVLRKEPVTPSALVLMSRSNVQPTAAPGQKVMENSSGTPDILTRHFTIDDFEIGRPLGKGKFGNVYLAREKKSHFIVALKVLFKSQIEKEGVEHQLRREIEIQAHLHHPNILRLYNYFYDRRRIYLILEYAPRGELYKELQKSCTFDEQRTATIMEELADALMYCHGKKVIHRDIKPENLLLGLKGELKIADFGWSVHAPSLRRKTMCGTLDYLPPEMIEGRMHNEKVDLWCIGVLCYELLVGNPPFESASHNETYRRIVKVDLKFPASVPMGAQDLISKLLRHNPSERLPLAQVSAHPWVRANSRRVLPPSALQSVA

[19] = target: Calcium/calmodulin-dependent protein kinase type II subunit delta (Homo sapiens) (UniProt Q13557); test: Inhibition of recombinant full length human CaMK2delta assessed as residual activity at 1 uM […] incubated for 40 mins in presence of [gamma-33ATP] by scintillation counting based radiometry assay relative to control
[20] = organism: Homo sapiens; test: Inhibition of recombinant human BRSK2 S251I mutant (2 to end residues) assessed as residual activity at 1 uM using KKLNRTLSFAEPG substrate incubated for 40 mins in presence of [gamma-33ATP] by scintillation counting based radiometry assay relative to control
[21] = test system: Serine/threonine-protein kinase Chk2 (Homo sapiens), O96017 [I157T]; test: Inhibition of recombinant human CHK2 I157T mutant (5 to end residues) assessed as residual activity at 1 uM using KKKVSRSGLYRSPSMPENLNRPR as substrate incubated for 40 mins in presence of [gamma-33ATP] by scintillation counting based radiometry assay relative to control

Row | SMILES | Activity [1] [%] | Activity [2] [%] | Activity [3] [%] | Activity [4] [%] | Activity [5] [%] | Activity [6] [%] | Activity [7] [%] | Activity [8] [%] | Activity [9] [%] | Activity [10] [%] | Activity [11] [%] | Activity [12] [%] | Activity [13] [%] | Activity [14] [%] | Activity [15] [%] | Activity [16] [%] | Activity [17] [%] | Activity [18] [%] | Activity [19] [%] | Activity [20] [%] | other results
1 | C=CCOC(=O)c1cc(-c2ccc(/C=C3/NC(=S)NC3=O)o2)ccc1Cl | 99 | 101 | 118 | 94 | 78 | 92 | 111 | 105 | 87 | 83 | 91 | 105 | 98 | 100 | 58 | 99 | 90 | 110 | 65 | 71 | Activity [21]: 91%
2 | N=C1NC(=O)/C(=C\c2ccc(-c3cccc([N+](=O)[O-])c3)o2)S1 | 103 | 112 | 92 | 97 | 100 | 98 | 95 | 98 | 95 | 110 | 84 | 105 | 108 | 92 | 43 | 94 | 103 | 94 | 92 | 42 | Activity [21]: 85%
